{"source": "patent US20240285630A1", "about": "“Methods and compositions for improving exercise performance” (MEZZION PHARMA CO., LTD., priority 2021, published 2024)", "key": {"[1]": {"tested_on": "adolescents with Fontan physiology", "assay": "FUEL Trial peripheral arterial tonometry (EndoPAT), log-transformed reactive hyperemia index", "type": "in vivo, human", "conditions": "for Log-transformed reactive hyperemia index, difference Week 26 - baseline, mean (SD): paired data", "from_the_text": "Baseline clinical testing completed before drug initiation included a blood draw to measure brain-type natriuretic peptide (BNP) level, a cardiopulmonary exercise test (CPET) using a standardized cycle ergometer ramp protocol, a standardized echocardiogram, and an assessment of peripheral vascular function using peripheral arterial tonometry (PAT) measured by finger cuff (EndoPAT; Itamar Medical, Israel). Participants who achieved maximal effort, defined as respiratory exchange ratio (RER)≥1.10 at peak exercise during CPET, were eligible for randomization and study drug initiation. […] End-of-study clinical testing included repeat measurement of serum BNP, CPET, echocardiogram, and PAT.\nBaseline clinical testing completed before drug initiation included a blood draw to measure brain-type natriuretic peptide (BNP) level, a cardiopulmonary exercise test (CPET) using a standardized cycle ergometer ramp protocol (previously described in children and adolescents with Fontan physiology, Sleeper L A, Anderson P, Hsu D T, Mahony L, McCrindle B W, Roth S J, Saul J P, Williams R V, Geva T, Colan S D, Clark B J and Pediatric Heart Network I. Design of a large cross-sectional study to facilitate future clinical trials in children with the Fontan palliation. Am Heart J. 152(3):427-433 (September 2006), a standardized echocardiogram, and an assessment of peripheral vascular function using peripheral arterial tonometry (PAT) measured by finger cuff (EndoPAT; Itamar Medical, Israel). Participants who achieved maximal effort, defined as respiratory exchange ratio (RER)>1.10 at peak exercise during CPET, were eligible for randomization and study drug initiation. […] End-of-study clinical testing included repeat measurement of serum BNP, CPET, echocardiogram, and PAT. […]"}, "[2]": {"tested_on": "adolescents with Fontan physiology", "assay": "FUEL Trial safety, adverse event reports", "type": "in vivo, human", "from_the_text": "The primary outcome was the change in oxygen consumption at peak exercise (max or peak VO2) from baseline to the 26-week visit. Secondary exercise outcomes included change in additional measures at maximal exertion, as well as change in measures of submaximal exercise at the ventilatory anaerobic threshold (VAT). The primary outcome for clinical secondary aims included change in myocardial performance index (MPI), an echocardiographically-derived measure of systolic and diastolic ventricular function, change in log-transformed reactive hyperemia index (InRHI), a PAT-derived measure of peripheral vascular function, and change in log-transformed serum BNP level. Safety was monitored through adverse event reports, which were collected according to a pre-specified protocol of study coordinator outreach, and through ad hoc patient and family communication with members of the study team at each site.\nThe primary outcome for clinical secondary aims included the between group differences in change in myocardial performance index (MPI), an echocardiographically-derived measure of systolic and diastolic ventricular function, change in log-transformed reactive hyperemia index (InRHI), a PAT-derived measure of peripheral vascular function, and change in log-transformed serum BNP level. Measurements for each of these secondary outcomes were performed at core labs. Safety was monitored through adverse event reports, which were collected according to a pre-specified protocol of study coordinator outreach, and through ad hoc patient and family communication with members of the study team at each site.\nA sample size of 200 participants per arm was chosen to allow for 90% power to detect a mean treatment difference in change from baseline to 26-week testing in peak VO2 of 10% with a type 1 error of 0.05. We assumed a baseline standard deviation of 7.235 ml/kg/min, a correlation between peak VO2 measurements of 0.33, a drop-out and incomplete testing rate of 10%, and failure to reach maximal effort at the 26-week exercise testing in 15% of participants. These assumptions were based on historical data and reflect a conservative approach to assessing within-participant correlations and failure to reach maximal effort and the analysis was performed using a two-sample, independent means t-test. The primary analysis used the intention-to-treat population to evaluate the difference in the change in the primary outcome between treatment arms. This difference was assessed with an analysis of covariance (ANCOVA) with fixed factors for ventricular morphology (single left versus single right or mixed) and treatment group, with a continuous covariate of baseline peak VO2. For those without data at the 26-week visit, this value was imputed as equal to the baseline value (no change). The alpha level was set at 0.05 with two-sided testing. All statistical analyses were performed using SAS statistical software 9.4 (SAS Institute, Inc., Cary, North Carolina). Secondary analyses included participants who successfully completed the protocol with measurable values at each of the secondary endpoints. Secondary outcomes of continuous data points were analyzed in the manner described for the primary outcome. In order to assess the generalizability of findings at the ventilatory anaerobic threshold, demographic and clinical characteristics were compared between participants without paired VO2 at VAT data and those comprising the remainder of the cohort using the Student's t-test and Fisher's exact test. Fisher's exact test was used to compare adverse events between the udenafil and placebo cohorts."}, "Fontan population": {"tested_on": "Fontan population", "assay": "FUEL OLE (open-label extension) trial", "type": "in vivo, human", "conditions": "those treated with udenafil in the FUEL trial; 26 to 78 weeks", "from_the_text": "Like most extension studies, the FUEL open label extension trial was not a placebo-controlled trial, but was instead designed to establish a safety profile over a longer duration of drug exposure—and is an independent source of data from FUEL."}, "[3]": {"tested_on": "adolescents with Fontan physiology", "conditions": "cited from earlier work"}}}
{"smiles": "CCCOc1ccc(S(=O)(=O)NCCC2CCCN2C)cc1-c1nc2c(CCC)nn(C)c2c(=O)[nH]1", "note": "(centres unmarked) [Udenafil, udenafil]", "values": [{"measurement": "Log-transformed reactive hyperemia index, difference LS Mean (SE), udenafil vs placebo", "setting": "[1]; ANCOVA", "result": "0.02 (0.030)"}, {"measurement": "Log-transformed reactive hyperemia index, difference Week 26 - baseline, mean (SD)", "setting": "[1]", "result": "0.06 (0.301)"}, {"measurement": "Log-transformed reactive hyperemia index, difference Week 26 - baseline, mean (SD)", "setting": "[1]; listed as udenafil", "result": 0.07}, {"measurement": "Dizziness, % of participants", "setting": "[2]; human, in vivo, 26 weeks", "result": "(8.0) %"}, {"measurement": "Dizziness, number of participants", "setting": "[2]; human, in vivo, 26 weeks", "result": 16}, {"measurement": "Epistaxis, % of participants", "setting": "[2]; human, in vivo, 26 weeks", "result": "(10.5) %"}, {"measurement": "Epistaxis, number of participants", "setting": "[2]; human, in vivo, 26 weeks", "result": 21}, {"measurement": "Flushing, % of participants", "setting": "[2]; human, in vivo, 26 weeks", "result": "(16.0) %"}, {"measurement": "Flushing, number of participants", "setting": "[2]; human, in vivo, 26 weeks", "result": 32}, {"measurement": "Headache, % of participants", "setting": "[2]; human, in vivo, 26 weeks", "result": "(39.5) %"}, {"measurement": "Headache, number of participants", "setting": "[2]; human, in vivo, 26 weeks", "result": 79}, {"measurement": "Nausea/vomiting, % of participants", "setting": "[2]; human, in vivo, 26 weeks", "result": "(15.5) %"}, {"measurement": "Nausea/vomiting, number of participants", "setting": "[2]; human, in vivo, 26 weeks", "result": 31}, {"measurement": "Participants who experienced a serious adverse event", "setting": "[2]; human, in vivo, 26 weeks", "result": 14}, {"measurement": "Serious adverse events with possible, probable, or definite relationship to study drug", "setting": "[2]; human, in vivo, 26 weeks", "result": 3}, {"measurement": "Priapism", "setting": "[2]; in vivo", "result": "no reported episodes of priapism"}, {"measurement": "Increased erection, % of male participants", "setting": "[2]; male, human, in vivo, 26 weeks", "result": "(11.7) %"}, {"measurement": "Increased erection, number of participants", "setting": "[2]; male, human, in vivo, 26 weeks", "result": 13}, {"measurement": "Deaths", "setting": "[2]; study cohort", "result": "no deaths"}, {"measurement": "Change from baseline in peak or max VO2 over FUEL and FUEL OLE", "setting": "Fontan population", "result": "persistence of benefit"}, {"measurement": "Average serum concentration", "setting": "[3]; 87.5 mg twice daily compared with other tested regimens", "result": "highest average serum concentration"}, {"measurement": "Dose limiting adverse events", "setting": "[3]; 87.5 mg twice daily", "result": "not associated with dose limiting adverse events"}, {"measurement": "Tolerability", "setting": "[3]; all tested dosing regimens", "result": "demonstrated tolerability at all tested dosing regimens"}]}
